Test results from the CheMixHub viscosity set.
Where “and” joins values, the source holds several entries; their conditions need not be identical. Equal entries are not always repeated.

C1CCCCCCC1
101 kPa
Settings | viscosity
298.15 K | 2.25 mPa·s
303 K | 2.007 mPa·s
303.15 K | 2.031 mPa·s
308.15 K | 1.818 mPa·s (2×) and 1.818 mPa·s
313.15 K | 1.649 mPa·s and 1.692 mPa·s

CC(=O)CC(C)(C)O
Settings | viscosity [mPa·s]
298.15 K, 101 kPa | 2.902

CC(=O)O.NCCO
viscosity
Settings | 293.15 K | 298.15 K | 303.15 K | 308.15 K | 313.15 K | 318.15 K | 323.15 K
101 kPa | 5032 mPa·s | 3167 mPa·s | 2044 mPa·s | 1369 mPa·s | 947.7 mPa·s | 661 mPa·s | 477.5 mPa·s
101.3 kPa | 3423 mPa·s | 2300 mPa·s and 2300 mPa·s and 2267 mPa·s | 1502 mPa·s | 1021 mPa·s | 711.1 mPa·s | 506.5 mPa·s | 368.3 mPa·s

CC(C)=CC(=O)C=C(C)C
Settings | viscosity [mPa·s]
298.15 K, 101 kPa | 1.394

CC(C)CC(C)O (stereo unspecified)
Settings | viscosity
298.15 K, 101.33 kPa | 3.823 mPa·s and 3.823 mPa·s

CC/C=C\CCO
100 kPa
Settings | viscosity [mPa·s]
293.15 K | 3.336
298.15 K | 2.921
303.15 K | 2.566
308.15 K | 2.266
313.15 K | 2.012
318.15 K | 1.807

CC1(C)OCC(CO)O1 (stereo unspecified)
101 kPa
Settings | viscosity [mPa·s]
298.15 K | 9.643
308.15 K | 6.834
318.15 K | 5.076

CCCCC
viscosity
Settings | 100 kPa | 101 kPa | 101.33 kPa
293.15 K | 0.222 mPa·s | – | –
298.15 K | 0.212 mPa·s | 0.2121 mPa·s and 0.214 mPa·s | 0.223 mPa·s and 0.223 mPa·s and 0.237 mPa·s

CCCCC(=O)OCC
101.33 kPa
Settings | viscosity [mPa·s]
293.15 K | 0.846
303.15 K | 0.694
313.15 K | 0.629

CCCCCCCCCC
viscosity
Settings | 293.15 K | 298.15 K | 303.15 K | 308.15 K | 313.15 K | 318.15 K | 323.15 K
100 kPa | 0.928 mPa·s and 0.918 mPa·s | 0.853 mPa·s and 0.874 mPa·s | 0.807 mPa·s and 0.795 mPa·s (2×) and 0.791 mPa·s | 0.745 mPa·s and 0.744 mPa·s | 0.691 mPa·s and 0.7 mPa·s (2×) and 0.699 mPa·s | 0.66 mPa·s and 0.659 mPa·s | 0.624 mPa·s
101 kPa | – | – | 0.802 mPa·s and 0.803 mPa·s | – | 0.6883 mPa·s | 0.66 mPa·s and 0.6182 mPa·s and 0.6466 mPa·s | 0.6085 mPa·s
101.32 kPa | 0.91 mPa·s | – | 0.785 mPa·s | – | – | – | –
101.33 kPa | 0.91 mPa·s | – | 0.774 mPa·s and 0.793 mPa·s and 0.755 mPa·s | – | 0.673 mPa·s | 0.619 mPa·s | –
103 kPa | – | 0.842 mPa·s | – | 0.727 mPa·s | – | 0.64 mPa·s | –

CCCCCCCO
viscosity
Settings | 100 kPa | 101 kPa | 101.3 kPa | 101.33 kPa
293.15 K | 7.018 mPa·s | – | 7.079 mPa·s | –
298 K | 5.956 mPa·s | – | – | –
298.15 K | – | – | 5.758 mPa·s | 5.69 mPa·s and 5.652 mPa·s
303 K | 4.778 mPa·s | – | – | –
303.15 K | 5.014 mPa·s | 4.996 mPa·s and 4.783 mPa·s | 4.814 mPa·s and 4.785 mPa·s | –
308.15 K | 4.275 mPa·s | 4.176 mPa·s and 4.691 mPa·s and 4.069 mPa·s | 4.2 mPa·s and 4.051 mPa·s and 4.691 mPa·s | 4.002 mPa·s and 4.045 mPa·s and 4.175 mPa·s
313 K | 3.228 mPa·s | 3.55 mPa·s | – | –
313.15 K | 3.656 mPa·s and 3.702 mPa·s and 3.735 mPa·s | 3.723 mPa·s and 4.598 mPa·s | 3.579 mPa·s | –
318.15 K | 3.407 mPa·s | – | 3.447 mPa·s | –
323 K | 2.529 mPa·s | – | – | –
323.15 K | 2.741 mPa·s and 2.8 mPa·s | – | – | 2.741 mPa·s and 2.741 mPa·s

CCCCCCn1cc[n+](C)c1.O=S(=O)([N-]S(=O)(=O)C(F)(F)F)C(F)(F)F
viscosity
Settings | 293.15 K | 298.15 K | 303.15 K | 308.15 K | 313.15 K | 318.15 K | 323.15 K
100 kPa | 89 mPa·s and 85.15 mPa·s | 65.94 mPa·s | 51.91 mPa·s | 41.36 mPa·s | 33.79 mPa·s | – | –
101 kPa | – | – | 58.3 mPa·s | 50.4 mPa·s | 41.4 mPa·s | 35 mPa·s | 28.8 mPa·s

CCCCN(CCC#N)CCCC
Settings | viscosity [mPa·s]
303.15 K, 100 kPa | 2.5

CCN(CC)CCO
viscosity
Settings | 298.15 K | 303.15 K | 313.15 K | 323.15 K
101.3 kPa | – | 3.308 mPa·s | 2.414 mPa·s | 1.466 mPa·s
101.33 kPa | 4.022 mPa·s and 4.01 mPa·s | 3.308 mPa·s | 2.414 mPa·s | –

CCN(CC)S(C)(=O)=O
Settings | viscosity [mPa·s]
303.15 K, 101.33 kPa | 40590

COP(=O)([O-])OC.C[N+]1(CCO)CCCC1
100 kPa
Settings | viscosity [mPa·s]
293.15 K | 1452
298.15 K | 980.6
303.15 K | 687.4
308.15 K | 496.1
313.15 K | 366
318.15 K | 272.8
323.15 K | 210.2
